Data: patent US12606544B2, “JAK1 selective kinase inhibitor” (DIZAL (JIANGSU) PHARMACEUTICAL CO., LTD., priority 2019, dated 2026)

Assays:
JAK1 = biological target: T1, JAK1 (Homo sapiens, UniProt P23458); test: Lance Ultra Kinase Assay, recombinant JAK1; type: biochemical; conditions: 5 mM ATP
T1 construct: purchased Carna Biosciences
How it was run: (§1)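 Each recombinant kinase preincubated with or without compound 15 min at room temperature, then reaction started with 5 mM ATP and substrate peptide for 60 min. Stopped with EDTA-containing detection mix; TR-FRET read at ex 320 nm, 665/615 nm emission ratio taken as kinase activity.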

JAK2 = biological target: T2, JAK2 (Homo sapiens, UniProt O60674); test: Lance Ultra Kinase Assay, recombinant JAK2; type: biochemical; conditions: 5 mM ATP
T2 construct: purchased Carna Biosciences
T2 sequence (O60674 whole entry): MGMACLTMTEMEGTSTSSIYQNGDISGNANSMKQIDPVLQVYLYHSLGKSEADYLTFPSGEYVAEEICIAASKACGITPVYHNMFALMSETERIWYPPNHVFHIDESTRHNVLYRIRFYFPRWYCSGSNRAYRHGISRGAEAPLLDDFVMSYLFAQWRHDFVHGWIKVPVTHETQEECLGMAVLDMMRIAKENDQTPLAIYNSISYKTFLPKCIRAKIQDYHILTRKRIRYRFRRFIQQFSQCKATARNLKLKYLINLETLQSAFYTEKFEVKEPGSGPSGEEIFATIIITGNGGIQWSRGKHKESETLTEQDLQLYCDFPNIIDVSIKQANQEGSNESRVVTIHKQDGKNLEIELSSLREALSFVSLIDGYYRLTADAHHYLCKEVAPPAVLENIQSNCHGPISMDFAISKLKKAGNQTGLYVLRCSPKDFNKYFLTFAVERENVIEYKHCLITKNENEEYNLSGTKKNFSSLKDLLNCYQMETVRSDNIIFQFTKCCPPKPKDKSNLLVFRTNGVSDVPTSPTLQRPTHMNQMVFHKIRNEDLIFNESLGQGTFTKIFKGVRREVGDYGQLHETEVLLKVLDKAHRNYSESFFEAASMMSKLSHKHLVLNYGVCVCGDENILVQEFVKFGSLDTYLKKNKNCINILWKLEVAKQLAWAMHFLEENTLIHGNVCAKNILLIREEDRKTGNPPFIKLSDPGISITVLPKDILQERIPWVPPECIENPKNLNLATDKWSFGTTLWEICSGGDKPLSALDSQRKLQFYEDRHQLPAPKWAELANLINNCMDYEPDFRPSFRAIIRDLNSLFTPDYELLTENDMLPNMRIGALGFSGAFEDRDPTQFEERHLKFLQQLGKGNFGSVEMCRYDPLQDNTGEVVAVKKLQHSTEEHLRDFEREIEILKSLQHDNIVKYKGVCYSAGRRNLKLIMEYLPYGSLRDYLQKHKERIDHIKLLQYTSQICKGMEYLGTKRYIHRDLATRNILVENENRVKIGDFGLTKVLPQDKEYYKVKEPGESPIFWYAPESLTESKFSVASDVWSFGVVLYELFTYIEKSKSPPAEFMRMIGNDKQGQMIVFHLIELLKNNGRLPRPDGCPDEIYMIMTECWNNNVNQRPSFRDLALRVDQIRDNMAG
How it was run: as §1

JAK3 = biological target: T3, JAK3 (Homo sapiens, UniProt P52333); test: Lance Ultra Kinase Assay, recombinant JAK3; type: biochemical; conditions: 5 mM ATP
T3 construct: purchased Carna Biosciences
T3 sequence (P52333 1-1124): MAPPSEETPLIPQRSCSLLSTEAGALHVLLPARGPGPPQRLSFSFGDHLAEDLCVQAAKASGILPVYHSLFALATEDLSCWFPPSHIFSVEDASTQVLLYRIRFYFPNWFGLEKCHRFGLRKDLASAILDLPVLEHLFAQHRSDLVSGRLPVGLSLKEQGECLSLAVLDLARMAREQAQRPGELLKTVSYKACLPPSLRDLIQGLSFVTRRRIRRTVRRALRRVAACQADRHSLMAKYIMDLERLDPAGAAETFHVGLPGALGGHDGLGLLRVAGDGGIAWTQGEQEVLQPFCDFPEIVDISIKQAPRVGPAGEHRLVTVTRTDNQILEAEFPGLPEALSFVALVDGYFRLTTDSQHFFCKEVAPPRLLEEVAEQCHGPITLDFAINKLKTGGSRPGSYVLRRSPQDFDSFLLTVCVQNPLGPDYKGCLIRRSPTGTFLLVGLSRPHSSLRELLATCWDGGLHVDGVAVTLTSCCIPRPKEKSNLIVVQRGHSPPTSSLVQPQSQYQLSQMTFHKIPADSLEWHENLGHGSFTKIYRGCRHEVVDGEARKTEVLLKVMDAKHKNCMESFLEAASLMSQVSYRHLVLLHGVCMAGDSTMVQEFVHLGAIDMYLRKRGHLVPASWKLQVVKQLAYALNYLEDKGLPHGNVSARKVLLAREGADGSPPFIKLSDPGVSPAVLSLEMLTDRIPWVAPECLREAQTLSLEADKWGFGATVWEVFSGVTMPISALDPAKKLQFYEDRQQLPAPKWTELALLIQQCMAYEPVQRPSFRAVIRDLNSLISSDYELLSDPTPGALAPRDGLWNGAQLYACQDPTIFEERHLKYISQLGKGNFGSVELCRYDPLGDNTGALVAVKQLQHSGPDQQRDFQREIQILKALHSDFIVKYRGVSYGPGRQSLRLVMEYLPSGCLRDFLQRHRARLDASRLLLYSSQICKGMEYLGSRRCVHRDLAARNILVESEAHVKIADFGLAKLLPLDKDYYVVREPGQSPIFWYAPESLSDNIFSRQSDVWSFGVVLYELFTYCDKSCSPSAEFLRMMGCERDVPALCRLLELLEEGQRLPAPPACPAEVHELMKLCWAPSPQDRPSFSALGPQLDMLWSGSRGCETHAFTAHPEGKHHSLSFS
How it was run: as §1

TYK2 = biological target: T4, TYK2 (Homo sapiens, UniProt P29597); test: Lance Ultra Kinase Assay, recombinant TYK2; type: biochemical; conditions: 5 mM ATP
T4 construct: purchased Carna Biosciences
T4 sequence (P29597 whole entry): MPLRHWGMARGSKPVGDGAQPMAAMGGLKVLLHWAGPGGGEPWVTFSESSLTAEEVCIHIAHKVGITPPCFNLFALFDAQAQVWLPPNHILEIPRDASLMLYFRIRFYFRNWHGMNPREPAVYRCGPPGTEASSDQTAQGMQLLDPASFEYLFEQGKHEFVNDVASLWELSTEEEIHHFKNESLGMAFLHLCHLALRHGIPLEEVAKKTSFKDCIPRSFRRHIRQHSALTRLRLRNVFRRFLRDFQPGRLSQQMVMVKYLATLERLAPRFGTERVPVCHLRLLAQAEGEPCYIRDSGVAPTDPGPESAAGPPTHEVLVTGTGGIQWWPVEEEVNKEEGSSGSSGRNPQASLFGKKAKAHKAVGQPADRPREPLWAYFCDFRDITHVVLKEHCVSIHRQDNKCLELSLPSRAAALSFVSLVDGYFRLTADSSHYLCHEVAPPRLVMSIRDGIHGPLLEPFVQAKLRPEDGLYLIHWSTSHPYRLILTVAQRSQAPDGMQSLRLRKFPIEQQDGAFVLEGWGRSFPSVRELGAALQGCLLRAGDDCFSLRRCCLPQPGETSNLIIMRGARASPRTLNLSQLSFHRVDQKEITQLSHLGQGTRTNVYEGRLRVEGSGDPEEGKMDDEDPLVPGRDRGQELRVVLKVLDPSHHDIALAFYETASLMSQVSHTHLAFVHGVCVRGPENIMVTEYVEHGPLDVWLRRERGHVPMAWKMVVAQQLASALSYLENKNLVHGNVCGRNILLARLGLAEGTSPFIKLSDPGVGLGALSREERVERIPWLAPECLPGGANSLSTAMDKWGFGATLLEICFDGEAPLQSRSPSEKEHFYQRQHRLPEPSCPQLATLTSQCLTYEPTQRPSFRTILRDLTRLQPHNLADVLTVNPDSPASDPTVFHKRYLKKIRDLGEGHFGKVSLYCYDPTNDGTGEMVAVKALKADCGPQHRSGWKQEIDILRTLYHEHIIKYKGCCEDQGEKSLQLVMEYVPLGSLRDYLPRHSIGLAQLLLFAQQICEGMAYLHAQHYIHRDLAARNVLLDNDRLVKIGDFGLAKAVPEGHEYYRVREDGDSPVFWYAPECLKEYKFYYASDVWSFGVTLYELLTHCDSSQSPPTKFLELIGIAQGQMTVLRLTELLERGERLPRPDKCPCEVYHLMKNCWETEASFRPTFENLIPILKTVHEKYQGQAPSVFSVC
How it was run: as §1

phosphorylation of STAT6 = test: Cellular p-STAT6 assay, IL-13 stimulated THP-1 cells, flow cytometry; type: cell-based; conditions: Homo sapiens, THP-1, THP-1 cells, IL-13 10 ng/ml; read-out: pSTAT6 IC50
How it was run: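 THP-1 cells (2×10^5/well, RPMI1640 + 10% FBS) preincubated 60 min at room temperature with compound (1 μM to 0.3 nM), then stimulated 30 min with IL-13 at 10 ng/ml. Fixed, methanol-permeabilized cells stained with PE anti-pSTAT6 and read by flow cytometry; IC50 from dose-response curves.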

[1] = Metabolic stability in rat hepatocytes; type: in vitro ADME; conditions: 1 μM compound, male rat hepatocytes
Experimental: (§2) Rat hepatocytes in male gender and human liver microsome were obtained from commercial vendors (e.g., BioreclamationIVT) and stored at −150° C. prior to use.
For metabolic stability assay with rat heptatocytes, vials of cryopreserved hepatocytes or microsome were removed from storage, ensured that vials remain at cryogenic temperatures. 1 μM of each test compound (in Acetonitrile; 0.01% DMSO) was incubated with 250 μL of hepatocyte cells (1×10^6 cells/ml) in a 96 deep well plate. […] 40 μL of supernatant was diluted to 200 μL with pure water and analyzed using LC-MS/MS.
In vitro hepatocyte clearance was estimated based on determination of elimination half-life (T1/2) of compounds disappearance from their initial concentrations. Peak area ratios of each compound (test or control) to IS was calculated. Ln (% Control) versus Incubation Time (min) curve was plotted, and the slope of a linear fitting line was calculated. Drug elimination rate constant k (min−1), T1/2 (min), and in vitro intrinsic clearance CLint (μL/min/E6) was calculated according to the following equations: k=−slope T1/2=0.693/k CLint=k/Chep Where Chep (cells×μL^−1) is the cell concentration in the incubation system.

[2] = Metabolic stability in human liver microsome; type: in vitro ADME; conditions: human, pooled human liver microsomes, pH 7.4, 1 μM compound, 1 mg/mL microsomes, NADPH
Experimental: as §2
For metabolic stability assay with human liver microsome, 1 μM of each test compound was incubated with 1 mg/mL of microsomes (Pooled HLM with 20 mg/ml protein cone) at 37° C. in 250 μL of buffer (100 mM phosphate buffer, pH-7.4) containing 1 mM NADPH solution. […] was quenched with 5 volumes chilled acetonitrile at different time points 0, 0.5, 5, 10, 15, 20 and 30 min in a fresh 96 well plate. The quench plate was centrifuged at 4000 rpm for 15 min. 40 μL of supernatant was diluted to 200 μL with pure water and analyzed using LC-MS/MS. […]

[3] = Pharmacokinetics in plasma and lung in mouse, intratracheal instillation; type: in vivo; conditions: male CD1 mice; for half-life / Kp at 5 min / Kp at 1 h: mouse; for half-life: lung, intratracheal instillation, read-out: Lung T1/2 (converted); for Kp at 5 min / Kp at 1 h: lung/plasma, other: intratracheal instillation; for Kp at 5 min: read-out: Conc. Ratio (Lung/Plasma) 5 min; for Kp at 1 h: read-out: Conc. Ratio (Lung/Plasma) 1 hr
Experimental: Lung PK of the compounds were tested via Intratracheal (IT) instillation administration in male CD1 Mice. Plasma and lung levels of test compounds and ratios thereof were determined in the following manner. Test compounds were dosed cassettely as the formulation of 0.4 mg/mL suspension of 0.5% HPMC, 0.1% Tween 80 in saline. The animal was anesthetized using 5% of isoflurane for 5 min, open its mouth and take out the tongue, the light was focused on the neck of the mouse and localize the trachea, and the syringe was inserted into the trachea while the trachea is in the open state, and the test compounds were inject into the trachea. At various time points (typically 5 min, 1, 4, 24 hours) post dosing, approximately 0.250 mL blood samples were removed via cardiac puncture and intact lungs were excised from the mice. Each blood sample was transferred into plastic micro centrifuge tubes containing K2EDTA. Blood samples were then centrifuged (Eppendorf centrifuge, 5804R) for 4 minutes at approximately 12,000 rpm at 4° C. to collect plasma. The mice will be fully exsanguinated prior to tissue collection. Lung samples will be collected at adopted time point and the whole lung were weighted and homogenized. Concentrations of test compounds in the plasma and lung samples were analyzed using a LC-MS/MS method. WinNonlin (Phoenix™) or other similar software will be used for pharmacokinetic calculations.

T1 sequence (P23458 whole entry): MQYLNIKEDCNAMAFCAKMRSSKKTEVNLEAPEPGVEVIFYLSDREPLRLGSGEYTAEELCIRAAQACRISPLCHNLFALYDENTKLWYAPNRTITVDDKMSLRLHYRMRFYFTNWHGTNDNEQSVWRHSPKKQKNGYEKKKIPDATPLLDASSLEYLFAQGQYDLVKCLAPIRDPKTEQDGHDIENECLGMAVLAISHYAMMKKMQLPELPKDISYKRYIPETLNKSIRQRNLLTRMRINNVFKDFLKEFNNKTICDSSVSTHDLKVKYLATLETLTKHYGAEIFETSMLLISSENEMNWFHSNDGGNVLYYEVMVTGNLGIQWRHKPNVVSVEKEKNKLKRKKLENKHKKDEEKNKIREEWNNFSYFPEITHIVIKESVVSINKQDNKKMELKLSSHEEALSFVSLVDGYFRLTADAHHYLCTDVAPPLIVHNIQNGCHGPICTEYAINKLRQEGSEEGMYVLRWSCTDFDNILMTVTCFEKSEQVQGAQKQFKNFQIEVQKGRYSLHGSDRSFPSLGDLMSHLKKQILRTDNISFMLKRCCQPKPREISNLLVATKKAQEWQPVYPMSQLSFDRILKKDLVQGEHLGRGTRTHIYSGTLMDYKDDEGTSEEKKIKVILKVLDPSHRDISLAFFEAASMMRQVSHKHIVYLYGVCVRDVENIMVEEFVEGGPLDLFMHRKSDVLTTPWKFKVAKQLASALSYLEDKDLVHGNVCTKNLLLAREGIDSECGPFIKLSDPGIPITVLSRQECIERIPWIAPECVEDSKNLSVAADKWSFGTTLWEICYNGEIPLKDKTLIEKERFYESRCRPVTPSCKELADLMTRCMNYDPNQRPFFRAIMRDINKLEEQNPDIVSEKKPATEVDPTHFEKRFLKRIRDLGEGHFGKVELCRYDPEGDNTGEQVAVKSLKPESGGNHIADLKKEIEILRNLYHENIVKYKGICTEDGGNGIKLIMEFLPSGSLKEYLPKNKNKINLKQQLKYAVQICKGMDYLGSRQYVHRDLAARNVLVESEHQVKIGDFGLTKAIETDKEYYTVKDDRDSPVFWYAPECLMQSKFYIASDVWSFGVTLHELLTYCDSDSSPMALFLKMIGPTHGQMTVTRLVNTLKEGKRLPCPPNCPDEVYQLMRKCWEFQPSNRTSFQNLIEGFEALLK

Row | Structure (SMILES) | IC50 (JAK1) [nM] | IC50 (JAK2) [nM] | IC50 (JAK3) [nM] | IC50 (TYK2) [nM] | IC50 (phosphorylation of STAT6) [nM] | Rat Hepatocyte CLint [1] [μL/min/10^6 cells] | microsomal CLint at 1 μM [2] [µL/min/mg] | % Dose in Lung 5 min [3] [%] | % Dose in Lung 1 hr [3] [%] | half-life [3] [h] | Kp at 5 min [3] | Kp at 1 h [3]
1 | COC[C@H](C(=O)Nc1cccc2c(-c3nc(Nc4ccnc(CO)c4)ncc3F)c[nH]c12)N1CCN(C)CC1 [Example 2, (R)-N-(3-(5-fluoro-2-((2-(hydroxymethyl)pyridin-4-yl)amino)pyrimidin-4-yl)-1H-indol-7-yl)-3-methoxy-2-(4-methylpiperazin-1-yl)propanamide] | 0.25 | 202 | > 10000 | 1090 | 4.3 | 9.5 | 10.6 | 18.1 | 13.4 | 29.9 | 399 | 3260
2 | CCC(=O)Nc1ccc(Nc2ncc(F)c(-c3c[nH]c4c(NC(=O)[C@@H](COC)N5CCN(C)CC5)cccc34)n2)cn1 [Example 5, (R)-N-(3-(5-fluoro-2-((6-propionamidopyridin-3-yl)amino)pyrimidin-4-yl)-1H-indol-7-yl)-3-methoxy-2-(4-methylpiperazin-1-yl)propanamide] | 0.19 | 268 | > 10000 | 764 | 5.1 | 11.0 | 73.9 | 101.6 | 54.0 | 6.1 | 2100 | 2940
3 | COC[C@H](C(=O)Nc1cccc2c(-c3nc(Nc4ccc(NC(=O)CO)nc4)ncc3F)c[nH]c12)N1CCN(C)CC1 [Example 8, (R)-N-(3-(5-fluoro-2-((6-(2-hydroxyacetamido)pyridin-3-yl)amino)pyrimidin-4-yl)-1H-indol-7-yl)-3-methoxy-2-(4-methylpiperazin-1-yl)propanamide] | 0.16 | 183 | > 10000 | 850 | 6.2 | 38.4 | 7.2 | 62.7 | 13.4 | 3.5 | 296 | 1590
4 | COC[C@H](C(=O)Nc1cccc2c(-c3nc(Nc4ccc5sc(CO)nc5c4)ncc3F)c[nH]c12)N1CCN(C)CC1 [Example 38, (R)-N-(3-(5-fluoro-2-((2-(hydroxymethyl)benzo[d]thiazol-5-yl)amino)pyrimidin-4-yl)-1H-indol-7-yl)-3-methoxy-2-(4-methylpiperazin-1-yl)propanainide] | 0.13 | 65 | > 10000 | 726 | 11.8 | 117.1 | 10.9 | 79.9 | 19.4 | 3.9 | 965 | 1780
5 | COC[C@H](C(=O)Nc1cccc2c(-c3nc(Nc4ccc(-c5cnco5)nc4)ncc3F)c[nH]c12)N1CCN(C)CC1 [Example 40, (R)-N-(3-(5-fluoro-2-((6-(oxazol-5-yl)pyridin-3-yl)amino)pyrimidin-4-yl)-1H-indol-7-yl)-3-methoxy-2-(4-methylpiperazin-1-yl)propanamide] | 0.21 | 219 | > 10000 | 2510 | 12.1 | 36.4 | 50.4 | 58.6 | 23.0 | 4.6 | 824 | 1440
6 | COC[C@H](C(=O)Nc1cccc2c(-c3nc(Nc4cnn(-c5cccc(CO)c5)c4)ncc3F)c[nH]c12)N1CCN(C)CC1 [Example 67, (R)-N-(3-(5-fluoro-2-((1-(3-(hydroxymethyl)phenyl)-1H-pyrazol-4-yl)amino)pyrimidin-4-yl)-1H-indol-7-yl)-3-methoxy-2-(4-methylpiperazin-1-yl)propanamide] | 0.18 | 35 | 6770 | 609 | 20.6 | 153.6 | 19.5 | – | – | – | – | –
